The subject of this experiment is P388. The experiment is described as follows: Antileukemic activity in vivo against P-388 mouse leukemia cell expressed as Dose. The class given is functional.

This note sets out measurements from ChEMBL document CHEMBL1121511, “Antileukemic compounds derived from the chemical modification of macrocyclic trichothecenes. 1. Derivatives of verrucarin A” (1980).

Bounds are passed on as bounds.

In the case of `CC(=O)OC1C(=O)OC[C@]23CC[C@H](C)C[C@H]2O[C@@H]2C[C@@H](OC(=O)/C=C\C=C\C(=O)OCCC1C)[C@@]3(C)C21CO1` (stereo partly specified) [VERRUCARIN A ACETATE], the Dose was above 1.
